Assay: T1 relaxation measurements (water proton relaxivity, 20 MHz NMR spectrometer, inversion-recovery)
Assay type: physicochemical
Conditions: Bo = 0.47 T, per Gd^3+ ion
Procedure: T1 Relaxation Measurements […] […] All of the three generations of cyclosiloxane-core dendrimers (polymer (A)˜(C)) were analyzed and compared with a commercial contrast agent, namely, Magnevist. […] 1, polymers (A)˜(D) for Magnetic resonance imaging (MRI) were developed. It consists of paramagnetic gadolinium ions chelated to DTPA/benzyl-DTPA molecules which in turn were attached to the peripheral of the cyclic dendritic structure.

SMILES: CNC[C@H](O)[C@@H](O)[C@H](O)[C@H](O)CO.CNC[C@H](O)[C@@H](O)[C@H](O)[C@H](O)CO.O=C([O-])CN(CCN(CC(=O)[O-])CC(=O)O)CCN(CC(=O)[O-])CC(=O)O.[Gd+3] [Magnevist ™]
- Relaxivity/Gd^3+ ion (ionic) r1: 4.2 (mM · s) − 1
